Results taken from paper PMC11674305, “Inhibition of Neural Crest Cell Migration by Strobilurin Fungicides and Other Mitochondrial Toxicants” (Cells, 2024).

Experiments:
neural crest cells (NCC) = experiment: Long-term transwell migration assay (18 h pre-exposure, 6 h migration); type: cell-based, human
Experimental: Magel et al. (2024): Inhibition of neural crest cells migration by strobilurin fungicides […]
Figure S11. Prolonged exposure of NCC in a modified transwell assay setup.
(A) Schematic illustration of the “long-term” transwell migration assay. In the beginning, NCC were plated into the insert of the transwell and treated with potential toxicants. In comparison to the standard transwell set-up, the lower medium compartment was initially not supplemented with FBS. In order to ensure a uniform concentration, picoxystrobin was added to both compartments. Cells were then incubated for 18 h (in the absence of a migration stimulus). Afterwards, 5% FBS was added to the lower compartment, to initiate NCC migration through the membrane pores. After 6 h, the number of cells that reached the downward surface of the membrane was quantified. (B) Result of concentration-dependent picoxystrobin testing in galactose medium in the long-term transwell assay. Cytochalasin D (200 nM) was used as positive control for “inhibited” migration (CytoD). “Unstimulated” migration (no FBS) is also shown. The dotted line at 75% indicates the threshold for inhibited migration. Data are expressed as means ± SEM from 3 independent biological experiments.
(also on this page, place not known: concentration -dependent long -term dott ed -4Ctrl Transwell migration [% of control ± SEM] CytoDBMC25 Picoxystrobin) […]

[1] = Estimate of maximal tolerable/acceptable exposure; design: species or system human; details: per day; LOEL with safety factor of 100, same as ADI of FAO/WHO 2012 report
Experimental: An estimate of the maximal external exposure was obtained as the next step of the study. We used two different approaches, based on (i) setting the acceptable daily intake as the upper limit and (ii) referring to the no-observed-effect level (NOEL) in an animal study (detailed in Figure 7A). We concluded from both approaches that a plausible upper daily tolerated threshold is 0.09 mg/kg. This value was used in a physiologically based kinetic (PBK) model to obtain concentration time data for different tissues in mothers and their fetus. Assuming a repeated daily exposure, the maximal maternal plasma concentrations were predicted to be in the 200–300 nM range. The maximal steady-state fetal brain concentrations were predicted to be in the 100 nM range (5th and 95th percentiles for exposure in the population of 100 subjects were 60–190 nM) (Figure 7B). […] Next, we used some advanced assays to obtain a better understanding of the potency range of picoxystrobin when used in different experimental setups. […]
Figure 7 Comparison of internal exposure estimates and primary effect potency. […] Data are expressed as means ± SEM from three independent biological experiments. ^# LOEL of animal study is based on a 90-day dog study (REF: https://www.fao.org/3/i3111e/i3111e.pdf (accessed on 15 June 2024)). *^,§ There is also an old (no longer valid) value by EFSA of 0.043 mg/kg/day from the year 2004 [71]. […]

CO/C=C(/C(=O)OC)c1ccccc1COc1cccc(C(F)(F)F)n1 [Picoxystrobin, picoxystrobin]
concentration range at which migration was inhibited (neural crest cells (NCC); 18 h pre-treatment + 6 h migration): ~600 nM | BMC25 (neural crest cells (NCC); galactose medium, 18 h pre-exposure + 6 h migration): 0.6 µM | upper daily tolerated threshold / estimate of max. exposure [tolerable/acceptable] [1]: 0.09 mg/kg
